From ChEMBL document CHEMBL1136464, “Array synthesis of novel lipodepsipeptide” (Bioorg Med Chem Lett, 2003)
≈ marks a conversion by molar mass, not a printed value.

What was measured:
Enterococcus faecalis [1] = assay: Antibacterial activity against Enterococcus faecalis ATCC 6569; type: functional
Enterococcus faecium [2] = assay: Antibacterial activity against Enterococcus faecium ATCC 49452; type: functional
Staphylococcus aureus [3] = assay: Antibacterial activity against methicillin-resistant staphylococcus aureus ATCC 43300; type: functional
Staphylococcus aureus [4] = assay: Antibacterial activity against methicillin susceptible staphylococcus aureus ATCC 29213; type: functional
Enterococcus faecium [5] = assay: Antibacterial activity against Enterococcus faecium ATCC 49452 at 0 % serum; type: functional
Staphylococcus aureus [6] = assay: Antibacterial activity against methicillin-resistant staphylococcus aureus ATCC 43300 at 0 % serum; type: functional
Staphylococcus aureus [7] = assay: Antibacterial activity against methicillin-resistant staphylococcus aureus ATCC 43300 at 10 % serum; type: functional
Staphylococcus aureus [8] = assay: Antibacterial activity against methicillin susceptible staphylococcus aureus ATCC 29213 at 0 % serum; type: functional
Enterococcus faecalis [9] = assay: Antibacterial activity against Enterococcus faecalis ATCC 6569 at 10 % serum; type: functional; details: ATCC 6569, Serum
Staphylococcus aureus [10] = assay: Antibacterial activity against methicillin susceptible staphylococcus aureus ATCC 29213 at 10 % serum; type: functional
Enterococcus faecalis [11] = assay: Antibacterial activity against Enterococcus faecalis ATCC 6569 at 0 % serum; type: functional
Enterococcus faecium [12] = assay: Antibacterial activity against Enterococcus faecium ATCC 49452 at 10 % serum; type: functional; details: ATCC 49452, Serum
[13] = Vd in mice; type: ADME, organism-based; details: mouse, in vivo
[14] = Total plasma clearance in mice; type: ADME, organism-based; details: mouse
[15] = Half-life in mice; type: ADME, organism-based; details: mouse, in vivo
Mus musculus = species: Mus musculus; assay: Protective dose against methicillin-resistant staphylococcus aureus ATCC 43300 was determined in mice; type: functional; details: read-out: PD50
Enterococcus faecalis [16] = assay: Antibacterial activity against Enterococcus faecalis ATCC 6569 at 0 % serum in mice; type: functional
Enterococcus faecium [17] = assay: Antibacterial activity against Enterococcus faecium ATCC 49452 at 0 % serum in mice; type: functional
Staphylococcus aureus [18] = assay: Antibacterial activity against methicillin-resistant staphylococcus aureus ATCC 43300 at 0 % serum in mice; type: functional
Staphylococcus aureus [19] = assay: Antibacterial activity against methicillin-resistant staphylococcus aureus ATCC 43300 at 10 % serum in mice; type: functional
Enterococcus faecium [20] = assay: Antibacterial activity against Enterococcus faecium ATCC 49452 at 10 % serum in mice; type: functional; details: ATCC 49452, Serum
Enterococcus faecalis [21] = assay: Antibacterial activity against Enterococcus faecalis ATCC 6569 at 10 % serum in mice; type: functional

SMILES | MIC (Enterococcus faecalis [1]) [µg/mL] | MIC (Enterococcus faecium [2]) [µg/mL] | MIC (Enterococcus faecium [5]) [µg/mL] | MIC (Staphylococcus aureus [6]) [µg/mL] | MIC (Staphylococcus aureus [7]) [µg/mL] | MIC (Staphylococcus aureus [8]) [µg/mL] | MIC (Enterococcus faecalis [9]) [µg/mL] | MIC (Staphylococcus aureus [10]) [µg/mL] | MIC (Enterococcus faecalis [11]) [µg/mL] | MIC (Enterococcus faecium [12]) [µg/mL] | further results
CCCCCCCCCC(=O)N[C@@H](Cc1c[nH]c2ccccc12)C(=O)N[C@H](CC(N)=O)C(=O)N[C@@H](CCO)C(=O)N[C@@H]1C(=O)NCC(=O)N[C@@H](CCCNC(=O)C(N)Cc2c[nH]c3ccc(F)cc23)C(=O)N[C@@H](CC(=O)O)C(=O)N[C@H](C)C(=O)N[C@@H](CC(=O)O)C(=O)NCC(=O)N[C@H](CO)C(=O)N[C@@H]([C@H](C)CC(=O)O)C(=O)N[C@@H](CC(=O)c2ccccc2N)C(=O)O[C@@H]1C (stereo partly drawn) | 3.1 (≈ 1.71 µM) | 12.5 (≈ 6.9 µM) |  |  |  |  |  |  |  |  | 
CCCCCCCCCC(=O)N[C@@H](Cc1c[nH]c2ccccc12)C(=O)N[C@H](CC(N)=O)C(=O)N[C@@H](CCO)C(=O)N[C@@H]1C(=O)NCC(=O)N[C@@H](CCCNC(=O)c2c(N)cccc2F)C(=O)N[C@@H](CC(=O)O)C(=O)N[C@H](C)C(=O)N[C@@H](CC(=O)O)C(=O)NCC(=O)N[C@H](CO)C(=O)N[C@@H]([C@H](C)CC(=O)O)C(=O)N[C@@H](CC(=O)c2ccccc2N)C(=O)O[C@@H]1C | 3.1 (≈ 1.78 µM) | 3.1 (≈ 1.78 µM) |  |  |  |  |  |  |  |  | 
CCCCCCCCCC(=O)N[C@@H](Cc1c[nH]c2ccccc12)C(=O)N[C@H](CC(N)=O)C(=O)N[C@@H](CCO)C(=O)N[C@@H]1C(=O)NCC(=O)N[C@@H](CCCNC(=O)c2ccccc2N)C(=O)N[C@@H](CC(=O)O)C(=O)N[C@H](C)C(=O)N[C@@H](CC(=O)O)C(=O)NCC(=O)N[C@H](CO)C(=O)N[C@@H]([C@H](C)CC(=O)O)C(=O)N[C@@H](CC(=O)c2ccccc2N)C(=O)O[C@@H]1C | 3.1 (≈ 1.8 µM) | 12.5 (≈ 7.24 µM) |  |  |  |  |  |  |  |  | MIC (Staphylococcus aureus [3]): 0.78 µg/mL (≈ 0.452 µM); MIC (Staphylococcus aureus [4]): 1.56 µg/mL (≈ 0.904 µM)
CCCCCCCCCC(=O)N[C@@H](Cc1c[nH]c2ccccc12)C(=O)N[C@H](CC(N)=O)C(=O)N[C@@H](CCO)C(=O)N[C@@H]1C(=O)NCC(=O)N[C@@H](CCCNC(=O)c2ccccc2)C(=O)N[C@@H](CC(=O)O)C(=O)N[C@H](C)C(=O)N[C@@H](CC(=O)O)C(=O)NCC(=O)N[C@H](CO)C(=O)N[C@@H]([C@H](C)CC(=O)O)C(=O)N[C@@H](CC(=O)c2ccccc2N)C(=O)O[C@@H]1C | 25 (≈ 14.6 µM) | 25 (≈ 14.6 µM) |  |  |  |  |  |  |  |  | MIC (Staphylococcus aureus [3]): 6.25 µg/mL (≈ 3.65 µM); MIC (Staphylococcus aureus [4]): 12.5 µg/mL (≈ 7.31 µM)
CCCCCCCCCC(=O)N[C@@H](Cc1c[nH]c2ccccc12)C(=O)N[C@H](CC(N)=O)C(=O)N[C@@H](CCO)C(=O)N[C@@H]1C(=O)NCC(=O)N[C@@H](CCCNC(=O)c2ccccc2S(=O)(=O)O)C(=O)N[C@@H](CC(=O)O)C(=O)N[C@H](C)C(=O)N[C@@H](CC(=O)O)C(=O)NCC(=O)N[C@H](CO)C(=O)N[C@@H]([C@H](C)CC(=O)O)C(=O)N[C@@H](CC(=O)c2ccccc2N)C(=O)O[C@@H]1C | 100 (≈ 55.8 µM) | 100 (≈ 55.8 µM) |  |  |  |  |  |  |  |  | MIC (Staphylococcus aureus [3]): 100 µg/mL (≈ 55.8 µM); MIC (Staphylococcus aureus [4]): 100 µg/mL (≈ 55.8 µM)
CCCCCCCCCC(=O)N[C@@H](Cc1c[nH]c2ccccc12)C(=O)N[C@H](CC(N)=O)C(=O)N[C@@H](CCO)C(=O)N[C@@H]1C(=O)NCC(=O)N[C@@H](CCCNCc2ccc(N3CCN(Cc4ccccc4)CC3)cc2)C(=O)N[C@@H](CC(=O)O)C(=O)N[C@H](C)C(=O)N[C@@H](CC(=O)O)C(=O)NCC(=O)N[C@H](CO)C(=O)N[C@@H]([C@H](C)CC(=O)O)C(=O)N[C@@H](CC(=O)c2ccccc2N)C(=O)O[C@@H]1C |  |  | 12.5 (≈ 6.68 µM) | 0.78 (≈ 0.417 µM) | 0.78 (≈ 0.417 µM) | 0.78 (≈ 0.417 µM) | 12.5 (≈ 6.68 µM) | 0.78 (≈ 0.417 µM) | 6.25 (≈ 3.34 µM) | 25 (≈ 13.4 µM) | 
CCCCCCCCCC(=O)N[C@@H](Cc1c[nH]c2ccccc12)C(=O)N[C@H](CC(N)=O)C(=O)N[C@@H](CC(=O)O)C(=O)N[C@@H]1C(=O)NCC(=O)N[C@@H](CCCNCc2ccc(-c3ccccc3)cc2)C(=O)N[C@@H](CC(=O)O)C(=O)N[C@H](C)C(=O)N[C@@H](CC(=O)O)C(=O)NCC(=O)N[C@H](CO)C(=O)N[C@@H]([C@H](C)CC(=O)O)C(=O)N[C@@H](CC(=O)c2ccccc2N)C(=O)O[C@@H]1C [listing 1 of 2 here] |  |  |  |  |  |  |  |  |  |  | Vd [13]: 0.107 L/kg; clearance [14]: 0.157 mL/min/kg; half-life [15]: 7.9 h
CCCCCCCCCC(=O)N[C@@H](Cc1c[nH]c2ccccc12)C(=O)N[C@H](CC(N)=O)C(=O)N[C@@H](CC(=O)O)C(=O)N[C@@H]1C(=O)NCC(=O)N[C@@H](CCCNCc2ccc(-c3ccccc3)cc2)C(=O)N[C@@H](CC(=O)O)C(=O)N[C@H](C)C(=O)N[C@@H](CC(=O)O)C(=O)NCC(=O)N[C@H](CO)C(=O)N[C@@H]([C@H](C)CC(=O)O)C(=O)N[C@@H](CC(=O)c2ccccc2N)C(=O)O[C@@H]1C [listing 2 of 2 here] |  |  | 1.56 (≈ 0.873 µM) | 0.2 (≈ 0.112 µM) | 1.56 (≈ 0.873 µM) | 0.39 (≈ 0.218 µM) | 12.5 (≈ 7 µM) | 3.13 (≈ 1.75 µM) | 1.56 (≈ 0.873 µM) | 25 (≈ 14 µM) | ED50 (Mus musculus): 1.04 mg/kg
CCCCCCCCCC(=O)N[C@@H](Cc1c[nH]c2ccccc12)C(=O)N[C@H](CC(N)=O)C(=O)N[C@@H](CCO)C(=O)N[C@@H]1C(=O)NCC(=O)N[C@@H](CCCNCc2ccc(C#N)cc2)C(=O)N[C@@H](CC(=O)O)C(=O)N[C@H](C)C(=O)N[C@@H](CC(=O)O)C(=O)NCC(=O)N[C@H](CO)C(=O)N[C@@H]([C@H](C)CC(=O)O)C(=O)N[C@@H](CC(=O)c2ccccc2N)C(=O)O[C@@H]1C |  |  | 6.25 (≈ 3.63 µM) | 0.78 (≈ 0.453 µM) | 0.78 (≈ 0.453 µM) | 0.78 (≈ 0.453 µM) | 6.25 (≈ 3.63 µM) | 0.78 (≈ 0.453 µM) | 6.25 (≈ 3.63 µM) | 12.5 (≈ 7.26 µM) | 
CCCCCCCCCC(=O)N[C@@H](Cc1c[nH]c2ccccc12)C(=O)N[C@H](CC(N)=O)C(=O)N[C@@H](CCO)C(=O)N[C@@H]1C(=O)NCC(=O)N[C@@H](CCCNCc2ccc(S(=O)(=O)N3CCN(c4ncccn4)CC3)cc2)C(=O)N[C@@H](CC(=O)O)C(=O)N[C@H](C)C(=O)N[C@@H](CC(=O)O)C(=O)NCC(=O)N[C@H](CO)C(=O)N[C@@H]([C@H](C)CC(=O)O)C(=O)N[C@@H](CC(=O)c2ccccc2N)C(=O)O[C@@H]1C |  |  | 3.13 (≈ 1.63 µM) | 0.39 (≈ 0.203 µM) | 1.56 (≈ 0.811 µM) | 0.78 (≈ 0.406 µM) | 6.25 (≈ 3.25 µM) | 1.56 (≈ 0.811 µM) | 3.13 (≈ 1.63 µM) | 12.5 (≈ 6.5 µM) | 
CCCCCCCCCC(=O)N[C@@H](Cc1c[nH]c2ccccc12)C(=O)N[C@H](CC(N)=O)C(=O)N[C@@H](CC(=O)O)C(=O)N[C@@H]1C(=O)NCC(=O)N[C@@H](CCCN)C(=O)N[C@@H](CC(=O)O)C(=O)N[C@H](C)C(=O)N[C@@H](CC(=O)O)C(=O)NCC(=O)N[C@H](CO)C(=O)N[C@@H]([C@H](C)CC(=O)O)C(=O)N[C@@H](CC(=O)c2ccccc2N)C(=O)O[C@@H]1C |  |  |  |  |  |  |  |  |  |  | MIC (Enterococcus faecalis [16]): 1.56 µg/mL (≈ 0.963 µM); MIC (Enterococcus faecium [17]): 1.56 µg/mL (≈ 0.963 µM); MIC (Staphylococcus aureus [18]): 0.78 µg/mL (≈ 0.481 µM); MIC (Staphylococcus aureus [19]): 0.78 µg/mL (≈ 0.481 µM); MIC (Enterococcus faecium [20]): 1.56 µg/mL (≈ 0.963 µM); MIC (Enterococcus faecalis [21]): 3.13 µg/mL (≈ 1.93 µM)
